Experimental data as given in ChEMBL document CHEMBL5331046, “Disulfiram and dithiocarbamate analogues demonstrate promising antischistosomal effects” (Eur J Med Chem, 2022).
Active and inactive are the calls of the source. The calls are words filed in the database; no cut-off is given here.

Legend:
[1] = system: Schistosoma mansoni; test: Antischistosomal activity against Schistosoma mansoni couples assessed as tegument damage at 50 uM measured upto 72 hrs by bright field microscopy; format: functional, organism-based
[2] = system: Schistosoma mansoni; test: Antischistosomal activity against Schistosoma mansoni couples assessed as intestinal dilations and tegument damage at 50 uM measured upto 72 hrs by bright field microscopy; format: functional, organism-based
[3] = system: HepG2; test: Cytotoxicity against human HepG2 cells assessed as reduction in cell viability upto 50 uM by WST-1 assay; format: toxicity, cell-based; settings: hepg2, 50 µM
[4] = system: Schistosoma mansoni; test: Antischistosomal activity against Schistosoma mansoni couples assessed as inhibition of eggs production at 50 uM measured upto 72 hrs by bright field microscopy; format: functional, organism-based
[5] = system: LS174T; test: Cytotoxicity against human LS174T cells assessed as reduction in cell vaibility upto 50 uM by WST-1 assay; format: toxicity, cell-based
[6] = system: Schistosoma mansoni; test: Antischistosomal activity against Schistosoma mansoni couples assessed as reduction in pairing stability at 50 uM measured upto 72 hrs by bright field microscopy; format: functional, organism-based
[7] = system: Schistosoma mansoni; test: Antischistosomal activity against Schistosoma mansoni couples assessed as gut dilations at 50 uM measured upto 72 hrs by bright field microscopy; format: functional, organism-based
[8] = system: Schistosoma mansoni; test: Antischistosomal activity against Schistosoma mansoni couples assessed as decrease in parasite vitality at 10 uM measured upto 72 hrs by bright field microscopy; format: functional; set-up: scale not given: the % may be the effect or the level left
[9] = system: Schistosoma mansoni; test: Antischistosomal activity against Schistosoma mansoni couples assessed as decrease in parasite motility at 25 uM measured upto 72 hrs by bright field microscopy; format: functional; set-up: scale not given: the % may be the effect or the level left
[10] = system: HepG2; test: Cytotoxicity against human HepG2 cells assessed as reduction in cell viability upto 100 uM by WST-1 assay; format: toxicity, cell-based; settings: hepg2, 100 µM
[11] = system: LS174T; test: Cytotoxicity against human LS174T cells assessed as reduction in cell vaibility upto 100 uM by WST-1 assay; format: toxicity, cell-based
[12] = system: Schistosoma mansoni; test: Antischistosomal activity against Schistosoma mansoni couples assessed as couple separation at 10 uM measured upto 72 hrs by bright field microscopy; format: functional
[13] = system: Schistosoma mansoni; test: Antischistosomal activity against Schistosoma mansoni couples at 100 uM measured upto 72 hrs by bright field microscopy; format: functional, organism-based
[14] = system: Schistosoma mansoni; test: Antischistosomal activity against Schistosoma mansoni couples assessed as decrease in parasite vitality at 25 uM measured upto 72 hrs by bright field microscopy; format: functional, organism-based
[15] = system: Schistosoma mansoni; test: Antischistosomal activity against Schistosoma mansoni couples assessed as gut dilations at 25 uM measured upto 72 hrs by bright field microscopy; format: functional, organism-based
[16] = system: Schistosoma mansoni; test: Antischistosomal activity against Schistosoma mansoni couples assessed as tissue structural changes at 25 uM measured upto 72 hrs by bright field microscopy; format: functional, organism-based
[17] = system: LS174T; test: Cytotoxicity against human LS174T cells assessed as reduction in cell viability at 100 uM by WST-1 assay; format: toxicity, cell-based
[18] = system: Schistosoma mansoni; test: Antischistosomal activity against Schistosoma mansoni couples assessed as couple separation at 25 uM measured upto 72 hrs by bright field microscopy; format: functional, organism-based
[19] = system: HepG2; test: Cytotoxicity against human HepG2 cells assessed as reduction in cell vaibility at 100 uM by WST-1 assay; format: toxicity, cell-based; settings: hepg2, 100 µM
[20] = system: Schistosoma mansoni; test: Antischistosomal activity against Schistosoma mansoni couples assessed as inhibition of eggs production at 25 uM measured upto 72 hrs by bright field microscopy; format: functional
[21] = system: LS174T; test: Cytotoxicity against human LS174T cells assessed as reduction in cell vaibility at 25 uM by WST-1 assay; format: toxicity, cell-based
[22] = system: Schistosoma mansoni; test: Antischistosomal activity against Schistosoma mansoni couples assessed as inhibition of eggs production at 10 uM measured upto 72 hrs by bright field microscopy; format: functional, organism-based
[23] = system: Schistosoma mansoni; test: Antischistosomal activity against Schistosoma mansoni couples assessed as reduction in pairing stability at 10 uM measured upto 72 hrs by bright field microscopy; format: functional, organism-based
[24] = system: Schistosoma mansoni; test: Antischistosomal activity against Schistosoma mansoni couples assessed as edematous swelling of gut at 25 uM measured upto 72 hrs by bright field microscopy; format: functional, organism-based
[25] = system: HepG2; test: Cytotoxicity against human HepG2 cells assessed as reduction in cell vaibility at 25 uM by WST-1 assay; format: toxicity, cell-based; settings: hepg2, 25 µM
[26] = system: Schistosoma mansoni; test: Antischistosomal activity against Schistosoma mansoni couples assessed as dead worms at 25 uM measured upto 72 hrs by bright field microscopy; format: functional
[27] = system: Schistosoma mansoni; test: Antischistosomal activity against Schistosoma mansoni couples assessed as decrease in parasite motility at 10 uM measured upto 72 hrs by bright field microscopy; format: functional, organism-based
[28] = system: Schistosoma mansoni; test: Antischistosomal activity against Schistosoma mansoni couples assessed as decrease in parasite motility at <25 uM measured upto 72 hrs by bright field microscopy; format: functional, organism-based
[29] = system: Schistosoma mansoni; test: Antischistosomal activity against Schistosoma mansoni couples assessed as decrease in mating stability <25 uM measured upto 72 hrs by bright field microscopy; format: functional, organism-based
[30] = system: Schistosoma mansoni; test: Antischistosomal activity against Schistosoma mansoni couples assessed as decrease in parasite motility at 50 uM measured upto 72 hrs by bright field microscopy; format: functional; set-up: scale not given: the % may be the effect or the level left
[31] = system: Schistosoma mansoni; test: Antischistosomal activity against Schistosoma mansoni couples assessed as reduction in pairing stability at 25 uM measured upto 72 hrs by bright field microscopy; format: functional; set-up: scale not given: the % may be the effect or the level left
[32] = system: Schistosoma mansoni; test: Antischistosomal activity against Schistosoma mansoni couples assessed as tegument damage at 100 uM measured upto 72 hrs by bright field microscopy; format: functional, organism-based
[33] = system: Schistosoma mansoni; test: Antischistosomal activity against Schistosoma mansoni couples assessed as lethality to parasites at 100 uM measured upto 72 hrs by bright field microscopy; format: functional, organism-based
[34] = system: Schistosoma mansoni; test: Antischistosomal activity against Schistosoma mansoni couples assessed as inhibition of eggs production at <25 uM measured upto 72 hrs by bright field microscopy; format: functional, organism-based
[35] = system: Schistosoma mansoni; test: Antischistosomal activity against Schistosoma mansoni couples assessed as decrease in pairing stability at 5 uM measured upto 72 hrs by bright field microscopy; format: functional; set-up: scale not given: the % may be the effect or the level left
[36] = system: Schistosoma mansoni; test: Antischistosomal activity against Schistosoma mansoni couples assessed as inhibition of eggs production at 100 uM measured upto 72 hrs by bright field microscopy; format: functional; set-up: scale not given: the % may be the effect or the level left
[37] = system: Schistosoma mansoni; test: Antischistosomal activity against Schistosoma mansoni couples assessed as pairing instability at 100 uM measured upto 72 hrs by bright field microscopy; format: functional
[38] = system: Schistosoma mansoni; test: Antischistosomal activity against Schistosoma mansoni couples assessed as tegument damage at 25 uM measured upto 72 hrs by bright field microscopy; format: functional, organism-based
[39] = system: Schistosoma mansoni; test: Antischistosomal activity against Schistosoma mansoni couples assessed as intestinal dilations and tegument damage at 25 uM measured upto 72 hrs by bright field microscopy; format: functional, organism-based
[40] = system: Schistosoma mansoni; test: Antischistosomal activity against Schistosoma mansoni couples assessed as decrease in parasite vitality at 5 uM measured upto 72 hrs by bright field microscopy; format: functional, organism-based
[41] = system: Schistosoma mansoni; test: Antischistosomal activity against Schistosoma mansoni couples assessed as inhibition of eggs production at 5 uM measured upto 72 hrs by bright field microscopy; format: functional

## CCN(CC)C(=S)SCc1ccc(SC)cc1
[1]
  Activity: Active
[2]
  Activity: Active
[3]
  Activity: Non-Toxic
[4]
  Activity: Active
[5]
  Activity: Non-Toxic
[6]
  Activity: Active
[7]
  Activity: Active

## CCN(CC)C(=S)SCC1CCCCC1
[8]
  Activity: 90%
[9]
  Activity: 35%
[10]
  Activity: Non-Toxic
[11]
  Activity: Non-Toxic
[12]
  Activity: 60%

## CN(C)CCN1CCN(C(=S)SCc2ccc([N+](=O)[O-])cc2)CC1
[13]
  Activity: Active
[14]
  Activity: Active
[15]
  Activity: Active
[9]
  Activity: 55%
[16]
  Activity: Active
[17]
  Activity: Toxic
[18]
  Activity: Active
[19]
  Activity: Toxic
[20]
  Activity: Active

## C[C@H](N)C(=O)N1CCN(C(=S)SCc2ccc([N+](=O)[O-])cc2)CC1.Cl
[13]
  Activity: Active
[21]
  Activity: Toxic
[22]
  Activity: Active
[8]
  Activity: Active
[9]
  Activity: 65%
[23]
  Activity: Active
[17]
  Activity: Toxic
[24]
  Activity: Active
[25]
  Activity: Toxic
[26]
  Activity: <=25%
[19]
  Activity: Toxic
[27]
  Activity: inactive

## CCN(CC)C(=S)SCc1cc([N+](=O)[O-])ccc1O
[28]
  Activity: inactive
[29]
  Activity: inactive
[30]
  Activity: >60%
[14]
  Activity: inactive
[9]
  Activity: inactive
[31]
  Activity: >=90%
[32]
  Activity: Active
[33]
  Activity: Active
[20]
  Activity: >=90%
[34]
  Activity: inactive

## CCN(CC)C(=S)SCCN1CCCCC1
[35]
  Activity: 100%
[36]
  Activity: >80%
[37]
  Activity: 100%

## CCN(CC)C(=S)SCc1ccc([N+](=O)[O-])cc1
[1]
  Activity: Active
[2]
  Activity: Active
[38]
  Activity: Active
[39]
  Activity: Active
[15]
  Activity: Active
[31]
  Activity: Active
[4]
  Activity: Active
[6]
  Activity: Active
[35]
  Activity: Active
[27]
  Activity: Active
[40]
  Activity: Active
[7]
  Activity: Active
[20]
  Activity: Active
[41]
  Activity: Active
